Assay results as given in patent US10865203B2, “Ligands selective to alpha 6 subunit-containing GABAA receptors and their methods of use” (UWM Research Foundation, Inc., priority 2015, dated 2020).
Values after ≈ are worked out from the molar mass of the structure shown.

Tests used:
HEPG2 cell line = assay: Cytotoxicity study, CellTiter-Glo cell viability; assay type: cell-based, Human; settings: HEPG2, 48 hours incubation
Experimental: Reagents and Instrumentation: Human liver hepatocellular carcinoma (HEPG2) cell line was purchased (ATCC) and cultured in 75 cm2 flasks (CellStar). Cells were grown in DMEM/High Glucose (Hyclone, #SH3024301) media to which non-essential amino acids (Hyclone, #SH30238.01), 10 mM HEPES (Hyclone, #SH302237.01), 5×106 units of penicillin and streptomycin (Hyclone, #SV30010), and 10% of heat inactivated fetal bovine serum (Gibco, #10082147) were added. Cells were harvested using 0.05% Trypsin (Hyclone, #SH3023601), which disrupts the cell monolayer and proteolytically cleaves the bonds between the cells and flask. The cell viability assay was evaluated using CellTiter-Glo™ Luminescent Cell Viability Assay Kit (Promega, Madison, Wis.) which contains luciferase and all its substrate except ATP. The controls for the cytotoxicity assay used were (E)-10-(bromotriphenylphosphoranyl)decyl 4-(4-(tert-butyl)phenyl)-4-oxobut-2-enoate (400 μM in DMSO, positive control) and DMSO (negative control). Cell culture was performed in a Baker Company Class II Biological Safety Cabinet. All luminescence readings were performed on a Tecan Infinite M1000 plate reader. Small volume transfers were performed on the Tecan Freedom EVO liquid handling system with a 100 nL pin tool transfer (V&P Scientific). Serial dilutions were done in 96-well polypropylene plates (Corning, #3365) and assays were conducted in 384-well white optical bottom plates.
Luminescence-Based VDR-Mediated Transcription Assay Protocol: After 48 hours of incubation at 37 °C with 5% CO2, the cells were harvested with 4 mL of 0.05% Trypsin, added to 10 mL of the assay buffer, DMEM/High Modified buffer without phenol red, and spun down for 3 minutes at 1000 rpm. The media was removed and cells were resuspended in the DMEM assay media. To each well, 40 μL of cells were added to yield a final concentration of 15,000 cells per well. The plates were then spun down for 2 minutes at 1000 rpm. After 2 hours, plated cells were treated with 100 nL×4 of small molecules and controls which were added using the pin tool. After 48 hours of incubation at 37 °C with 5% CO2, 20 μL of Cell Titer-Glo™ Luminescence Assay Kit (cytotoxicity assay) were added and luminescence was read. Controls were measured within each plate to determine the z′ factor (Equation 1) and to enable data normalization. Three independent experiments were performed in quadruplicate and data was analyzed using nonlinear regression with variable slope (GraphPrism, Equation 2). The luminescence intensity of control (untreated) cells was taken as 100% viability, and the relative cell viability compared to control was calculated. Data are presented as the means±SEM of a series of three experiments.

[1] = Microsomal stability assay, mouse liver microsomes; assay type: in vitro ADME; settings: 10 μM test compound, 0.5 mg/mL protein, 37° C.; for half-life at 10 μM: mouse, liver microsomes, pH 7.4, read-out: Half-life (min) (MLM)
Experimental: (§1) 4 μL of 1 mM test compound at a final concentration of 10 μM dissolved in DMSO/ACN/Methanol/Ethanol was preincubated at 37° C. for 5 minutes on a digital heating shaking dry bath (Fischer scientific, Pittsburgh, Pa.) in a mixture containing 282 μL of water, 80 μL of phosphate buffer (0.5 M, pH 7.4), 20 μL of NADPH Regenerating System Solution A (BD Bioscience, San Jose, Calif.) and 4 μL of NADPH Regenerating System Solution B (BD Bioscience, San Jose, Calif.) in a total volume of 391.2 μL. Following preincubation, the reaction was initiated by addition of 8.8 μL of either human liver microsomes (BD Gentest, San Jose, Calif.), mouse liver microsomes (Life technologies, Rockford, Ill.), at a protein concentration of 0.5 mg/mL. Aliquots of 50 μL were taken at time intervals of 0 (without microsomes), 10, 20, 30, 40, 50 and 60 minutes. Each aliquot was added to 100 μL of cold acetonitrile solution containing 1 μM/2 μM internal standard. This was followed by sonication for 10 seconds and centrifugation at 10,000 rpm for 5 minutes. 100 μL of the supernatant was transferred into Spin-X HPLC filter tubes (Corning Incorporated, NY) and centrifuged at 13,000 rpm for 5 minutes. […] The ratio of the peak areas of the internal standard and test compound was calculated for every time point and the natural log of the ratio were plotted against time to determine the linear slope (k). […] All experiments were repeated three times in duplicates.

[2] = Microsomal stability assay, human liver microsomes; assay type: in vitro ADME; settings: 10 μM test compound, 0.5 mg/mL protein, 37° C.
Experimental: as §1

[3] = Solubility of compounds in DI water; assay type: physicochemical; settings: thermodynamic from solid; 2 mg in 2 mL DI water, sonicated at 60° C. for 2 hours, cooled to room temperature, filtered
Experimental: The solubility of the compounds was examined by sonicating 2 mg of each respective compound in 2 mL of DI water at 60° C. for 2 hours. Solutions were cooled to room temperature and then filtered using a syringe filter. The resultant solutions were injected into a mass spectrometer using a SIM method, calibrated to the respective retention times and mass units of each compound. Calibration curves using standard solutions (5 data points) of each compound dissolved in methanol were used to calculate the unknown aqueous concentrations of each compound.

[4] = tested on: METH-impaired PPI in C57/B6 mice; assay: PPI test, methamphetamine-impaired prepulse inhibition; assay type: in vivo, mouse; settings: mice, compound 10 mg/kg i.p. 15 min before METH 2 mg/kg i.p.
Experimental: All animal experiments conducted at NTU were approved by the Institutional Animal Care and Use Committee of College of Medicine, National Taiwan University. C57/B6 (8-10 weeks) mice were used for the PPI test and Wistar rats (8-9 weeks) were used in the migraine model. Animals were housed in an animal room with a 12-h light/12-h dark cycle and free access to food and water.
The PPI test was conducted with a PPI apparatus (SR-LAB, San Diego Instruments, San Diego, Calif.) consisting of a startle chamber equipped with various programming acoustic stimulations. After acclimation, the mouse was gently placed in the startle chamber for a 4 min acclimation period with a background noise of 65 dB, which continued throughout the whole PPI test session. One PPI test session consisted of 4 types of startle trials, including the trial with the startle pulse (115 dB) alone (PULSEALONE; 115 dB, 20 ms), two trials with the startle pulse paired with 71 and 77 dB prepulses, respectively (PREPULSE+PULSE; 71 dB+115 dB and 77 dB+115 dB), and the trial without stimulus (NOSTIM; background 65 dB only). A test session started and ended, respectively, with four NOSTIM trials and four PULSEALONE trials. In between, each of the four types of trials was presented 14 times randomly, that is, 56 trials were given in a test session. The intertrial interval was given randomly from 5 to 20 s. In the PREPULSE+PULSE trial, a 71 or 77 dB prepulse was given 120 ms before the 115 dBpulse. The magnitude of PPI (PPI %) was determined, after summarizing the startle responses in PULSEALONE and PREPULSE+PULSE trials, according to the equation (PULSEALON−PREPULSE+PULSE)/PULSEALONE×100%. The tested compound or vehicle was given to the animal for 15 min, followed by methamphetamine (2 mg/kg). The PPI test was conducted 10 min after injection of methamphetamine. Data were expressed as the mean±S.E.M. Statistical comparisons among groups were analyzed by ANOVA with Tukey post hoc test, and differences between groups were analyzed by Student's t-test. Two-way ANOVA with Bonferroni's post hoc test was used to analyze differences in the time courses of locomotor activity among groups. Differences were considered significant if P<0.05.
Methamphetamine and apomorphine were dissolved in normal saline for i.p. And s.c. Injections, respectively. Tested compounds and haloperidol, when given by i.p. Injection, were dissolved in a vehicle containing 20% dmso, 20% Cremophor® el (polyoxyethylene castor, sigma-aldrich) and 60% normal saline. Furosemide was dissolved (20 nmole/μL) in dimethylsulfoxide for intra-cerebellar microinjection the i.p. or s.c. Injection volume was 10 mL/kg.

[5] = Half-life in liver microsomes (Example 4); assay type: in vitro ADME; settings: rat and human liver microsomes, species of the value not stated
Description: Metabolic pathways that may disrupt the activity of compounds with aryl methoxy groups were investigated.

SMILES: [2H]C([2H])([2H])Oc1ccc(-n2nc3c4ccc(OC([2H])([2H])[2H])cc4[nH]cc-3c2=O)cc1 [DK-I-60-3, 7-Methoxy-d3-2-(4-methoxy-d3-phenyl)-2,5-dihydro-3H-pyrazolo[4,3-c]quinolin-3-one]
- toxicity at 400 μM (HEPG2 cell line): non-toxic
- % left after 1 hr. (MLM) [1]: 93.08 ± 0.19%
- Half-life (min) (MLM) [1]: 846.85 ± 276 min
- % left after 1 hr. (HLM) [2]: 91.51 ± 0.18%
- Half-life (min) (HLM) [2]: 780.73 ± 238 min
- solubility at 2 h [3]: 16 µg/mL (≈ 48.9 µM)

SMILES: [2H]C([2H])([2H])Oc1ccc2c3nn(-c4ccc(OC)cc4)c(=O)c-3c[nH]c2c1 [RV-I-029, 7-Methoxy-d3-2-(4-methoxyphenyl)-2,5-dihydro-3H-pyrazolo[4,3-c]quinolin-3-one]
- rescue of METH-impaired PPI ([4]; listed as 1-29): effective
- % left after 1 hr. (MLM) [1]: 93.17 ± 016%
- Half-life (min) (MLM) [1]: 857.8 ± 235 min
- % left after 1 hr. (HLM) [2]: 95.35 ± 1%
- half-life at 10 μM ([2]; human, liver microsomes, pH 7.4, read-out: Half-life (min) (HLM)): 2970 ± 742 min
- half-life [5]: > 50 h

SMILES: [2H]C([2H])([2H])Oc1cccc(-n2nc3c4cc(Cl)ccc4[nH]cc-3c2=O)c1 [DK-I-59-1, 8-Chloro-2-(3-methoxy-d3-phenyl)-2,5-dihydro-3H-pyrazolo[4,3-c]quinolin-3-one]
- toxicity at 400 μM (HEPG2 cell line): non-toxic
- rescue of METH-impaired PPI [4]: effective
- % left after 1 hr. (MLM) [1]: 76.6 ± 0.11%
- half-life at 10 μM [1]: 166 ± 7.5 min
- % left after 1 hr. (HLM) [2]: 93 ± 0.09%
- Half-life (min) (HLM) [2]: 649 ± 81 min

SMILES: [2H]C([2H])([2H])Oc1ccc(-n2nc3c4ccc(Br)cc4[nH]cc-3c2=O)cc1 [DK-I-58-1, 7-Bromo-2-(4-methoxy-d3-phenyl)-2,5-dihydro-3H-pyrazolo[4,3-c]quinolin-3-one]
- toxicity at 400 μM (HEPG2 cell line): non-toxic
- % left after 1 hr. (MLM) [1]: 73.8 ± 0.15%
- half-life at 10 μM [1]: 140 ± 7.18 min
- % left after 1 hr. (HLM) [2]: 81.5 ± 0.11%
- Half-life (min) (HLM) [2]: 204.6 ± 10 min
- solubility at 2 h [3]: 9.2 µg/mL (≈ 24.7 µM)

SMILES: COc1ccc(-n2nc3c4ccc(Br)cc4[nH]cc-3c2=O)cn1 [DK-II-48-1, 7-Bromo-2-(6-methoxypyridin-3-yl)-2,5-dihydro-3H-pyrazolo[4,3-c]quinolin-3-one]
- toxicity at 400 μM (HEPG2 cell line): non-toxic
- % left after 1 hr. (MLM) [1]: 93.12 ± 0.22%
- Half-life (min) (MLM) [1]: 680.6 ± 114 min
- % left after 1 hr. (HLM) [2]: 93.4 ± 0.11%
- Half-life (min) (HLM) [2]: 727.7 ± 115 min
